Measurements taken from ChEMBL document CHEMBL1201862, “PubChem BioAssay data set” (2004).
Activity calls are given as the source filed them.

Legend:
cells [1] = assay: cells
[2] = molecular target: T1, Oxysterols receptor LXR-beta (Homo sapiens, UniProt P55055); type: functional, cell-based
T1 sequence (P55055 whole entry): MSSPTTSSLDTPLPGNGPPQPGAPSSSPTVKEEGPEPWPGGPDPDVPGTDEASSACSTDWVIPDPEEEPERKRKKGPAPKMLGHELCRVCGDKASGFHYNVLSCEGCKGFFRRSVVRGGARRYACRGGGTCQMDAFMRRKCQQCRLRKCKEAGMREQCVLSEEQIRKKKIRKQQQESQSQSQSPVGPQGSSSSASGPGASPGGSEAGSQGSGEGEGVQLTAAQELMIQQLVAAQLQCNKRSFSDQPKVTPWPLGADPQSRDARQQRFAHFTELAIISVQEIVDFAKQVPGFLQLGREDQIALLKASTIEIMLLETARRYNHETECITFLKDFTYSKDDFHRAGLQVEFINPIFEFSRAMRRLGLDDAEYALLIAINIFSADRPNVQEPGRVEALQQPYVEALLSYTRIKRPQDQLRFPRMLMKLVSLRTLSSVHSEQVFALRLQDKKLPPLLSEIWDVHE

[3] = A Cell Based Secondary Assay To Explore Cytotoxicity of Compounds that Sensitize Mycobacterium Tuberculosis to Beta-Lactam Antibiotics.; type: functional
[4] = molecular target: Voltage-gated inwardly rectifying potassium channel KCNH2 (Homo sapiens, UniProt Q12809); assay: hERG protection from proarrhythmic block, potency, dose response, cell-based, thallium flux (AID 2121); type: ADME
Sequence of Voltage-gated inwardly rectifying potassium channel KCNH2 (Q12809 whole entry): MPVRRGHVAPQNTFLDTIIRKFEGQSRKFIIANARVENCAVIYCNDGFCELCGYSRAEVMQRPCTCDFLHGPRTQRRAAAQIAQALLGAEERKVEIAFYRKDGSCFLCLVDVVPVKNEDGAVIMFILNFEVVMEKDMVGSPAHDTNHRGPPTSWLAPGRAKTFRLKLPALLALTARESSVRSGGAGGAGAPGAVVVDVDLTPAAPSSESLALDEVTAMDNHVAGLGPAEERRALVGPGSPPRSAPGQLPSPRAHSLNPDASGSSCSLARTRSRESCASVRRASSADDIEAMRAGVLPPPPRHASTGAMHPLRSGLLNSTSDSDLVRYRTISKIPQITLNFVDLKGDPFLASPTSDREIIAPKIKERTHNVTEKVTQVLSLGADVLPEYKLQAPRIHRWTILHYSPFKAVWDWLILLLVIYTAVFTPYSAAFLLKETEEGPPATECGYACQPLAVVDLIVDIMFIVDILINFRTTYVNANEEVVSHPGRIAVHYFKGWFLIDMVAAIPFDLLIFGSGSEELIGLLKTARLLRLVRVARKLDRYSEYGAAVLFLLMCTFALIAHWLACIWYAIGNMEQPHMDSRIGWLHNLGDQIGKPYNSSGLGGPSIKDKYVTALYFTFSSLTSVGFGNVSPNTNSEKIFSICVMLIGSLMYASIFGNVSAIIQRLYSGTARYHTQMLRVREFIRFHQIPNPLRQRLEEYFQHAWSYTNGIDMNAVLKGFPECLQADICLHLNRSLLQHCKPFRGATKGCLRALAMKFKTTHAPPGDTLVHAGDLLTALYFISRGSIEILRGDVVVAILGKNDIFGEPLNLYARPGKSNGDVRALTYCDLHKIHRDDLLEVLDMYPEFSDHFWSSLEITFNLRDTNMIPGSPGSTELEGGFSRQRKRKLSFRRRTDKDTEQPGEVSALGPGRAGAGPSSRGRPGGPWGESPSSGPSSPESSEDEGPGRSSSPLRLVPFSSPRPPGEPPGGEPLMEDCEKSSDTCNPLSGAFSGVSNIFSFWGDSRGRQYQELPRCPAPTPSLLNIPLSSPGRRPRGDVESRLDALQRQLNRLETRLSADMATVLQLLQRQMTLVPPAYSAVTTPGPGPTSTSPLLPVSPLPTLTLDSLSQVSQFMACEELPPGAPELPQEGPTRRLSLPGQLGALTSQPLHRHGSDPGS

[5] = cytotoxicity in HPDE-C7 cells, cell-based, fluorescence, HTS (AID 430); type: functional; conditions: Homo sapiens
[6] = molecular target: Mitogen-activated protein kinase 10 (Homo sapiens, UniProt P53779); assay: Dose response biochemical screening assay for inhibitors of c-Jun N-Terminal Kinase 3 (JNK3). [Related pubchem assays: 746 ]
Sequence of Mitogen-activated protein kinase 10 (P53779 whole entry): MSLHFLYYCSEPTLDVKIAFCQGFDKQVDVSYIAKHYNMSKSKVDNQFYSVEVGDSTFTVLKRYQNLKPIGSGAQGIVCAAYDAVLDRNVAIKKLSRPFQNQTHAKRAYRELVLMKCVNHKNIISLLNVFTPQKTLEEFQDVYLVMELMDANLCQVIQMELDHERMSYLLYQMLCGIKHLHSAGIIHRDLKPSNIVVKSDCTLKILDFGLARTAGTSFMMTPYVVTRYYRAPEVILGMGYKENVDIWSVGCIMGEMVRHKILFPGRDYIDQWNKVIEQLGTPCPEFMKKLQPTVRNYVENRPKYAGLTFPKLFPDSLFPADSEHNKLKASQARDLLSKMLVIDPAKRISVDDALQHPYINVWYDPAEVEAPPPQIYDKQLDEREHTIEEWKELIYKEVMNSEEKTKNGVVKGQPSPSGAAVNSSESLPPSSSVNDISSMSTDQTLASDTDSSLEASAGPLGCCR

[7] = molecular target: FAD-linked sulfhydryl oxidase ALR (Homo sapiens, UniProt P55789); assay: inhibitors of human ALR sulfhydryl oxidase, dose response, biochemical, H2O2 detection, luminescence, cherry-pick (AID 493248)
Sequence of FAD-linked sulfhydryl oxidase ALR (P55789 whole entry): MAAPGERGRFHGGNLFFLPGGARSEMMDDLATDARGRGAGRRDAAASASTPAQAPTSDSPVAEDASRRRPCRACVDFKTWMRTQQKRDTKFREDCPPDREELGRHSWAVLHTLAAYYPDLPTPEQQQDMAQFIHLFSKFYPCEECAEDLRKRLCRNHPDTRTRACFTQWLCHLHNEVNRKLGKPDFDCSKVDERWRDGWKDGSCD

[8] = molecular target: Heat shock protein HSP 90-alpha (Homo sapiens, UniProt P07900); type: functional, organism-based
[9] = cytotoxicity in KRAS-transformed pancreatic duct cells, primary screen, cell-based, fluorescence, HTS (AID 431); type: functional; conditions: Homo sapiens;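 note: cell line used: HPDE-C7K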
cells [10] = type: functional, cell-based
[11] = molecular target: T1, Oxysterols receptor LXR-beta; type: functional, cell-based; remark: listed apart in the source
cells [12] = type: functional, cell-based; remark: listed apart in the source
Prothrombin = Prothrombin (Homo sapiens, UniProt P00734); assay: Thrombin 1536 HTS Dose Response Confirmation. [Related pubchem assays: 1046 (Thrombin 1536 HTS; hits were confirmed in this assay)]; type: functional
[13] = M. tuberculosis H37Rv growth inhibitors, H37Rv strain (AID 1626); type: functional
[14] = molecular target: T2, Corticotropin-releasing factor receptor 2/Corticotropin-releasing factor-binding protein (Homo sapiens, UniProt P24387+Q13324); assay: activators of CRF receptor 2 with binding protein – uHTS hits, confirmation (AID 602473); type: functional; conditions: read-out: EC50_Mean
T2 sequence (Q13324 whole entry): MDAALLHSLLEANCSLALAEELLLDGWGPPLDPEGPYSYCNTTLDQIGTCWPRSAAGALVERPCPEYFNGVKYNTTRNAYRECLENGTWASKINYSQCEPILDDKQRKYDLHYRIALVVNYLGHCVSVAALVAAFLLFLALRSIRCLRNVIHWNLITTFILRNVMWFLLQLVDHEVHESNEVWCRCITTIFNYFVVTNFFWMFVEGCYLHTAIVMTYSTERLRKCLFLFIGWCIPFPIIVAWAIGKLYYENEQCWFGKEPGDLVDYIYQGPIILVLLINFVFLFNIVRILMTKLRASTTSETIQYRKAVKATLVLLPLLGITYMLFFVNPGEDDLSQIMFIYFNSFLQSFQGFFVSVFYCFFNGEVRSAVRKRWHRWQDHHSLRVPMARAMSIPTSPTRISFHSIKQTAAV
T2 sequence (P24387 whole entry): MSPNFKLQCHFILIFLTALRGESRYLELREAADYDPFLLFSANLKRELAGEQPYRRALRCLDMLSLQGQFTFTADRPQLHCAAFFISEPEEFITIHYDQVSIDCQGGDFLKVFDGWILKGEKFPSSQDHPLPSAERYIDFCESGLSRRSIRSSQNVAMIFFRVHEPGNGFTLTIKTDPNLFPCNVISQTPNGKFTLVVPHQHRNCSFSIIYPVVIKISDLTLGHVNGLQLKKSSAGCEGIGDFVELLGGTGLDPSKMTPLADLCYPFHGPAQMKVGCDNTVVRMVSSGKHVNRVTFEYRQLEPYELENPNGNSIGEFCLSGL

[15] = molecular target: T2, Corticotropin-releasing factor receptor 2/Corticotropin-releasing factor-binding protein; assay: Dose Response confirmation of uHTS hits for small molecule antagonists of the CRF-binding protein and CRF-R2 receptor complex.; type: functional; conditions: read-out: IC50_Mean
Vero = assay: host cell cytotoxicity of antiviral hits, dose response, cytotoxicity control for West Nile virus antiviral project, secondary assay (AID 1650); type: functional; conditions: Chlorocebus sabaeus
[16] = molecular target: T1, Oxysterols receptor LXR-beta; assay: LXR agonists, Gal4 luciferase reporter, dose response, counter-screen for ssDAF-12 agonist project, cell-based, luminescence, HEK293, S. stercoralis campaign (AID 720737); type: functional; conditions: read-out: IC50 (the source's name)
[17] = Luminescence-based cell-based high throughput dose response assay to identify activators of the DAF-12 from the parasite S. stercoralis (ssDAF-12).; type: functional
Kallikrein-7 = Kallikrein-7 (Homo sapiens, UniProt P49862); assay: Fluorescence Intensity-based biochemical primary high throughput dose response assay to identify activators of kallikrein-7 (K7) zymogen.
Sequence of Kallikrein-7 (P49862 whole entry): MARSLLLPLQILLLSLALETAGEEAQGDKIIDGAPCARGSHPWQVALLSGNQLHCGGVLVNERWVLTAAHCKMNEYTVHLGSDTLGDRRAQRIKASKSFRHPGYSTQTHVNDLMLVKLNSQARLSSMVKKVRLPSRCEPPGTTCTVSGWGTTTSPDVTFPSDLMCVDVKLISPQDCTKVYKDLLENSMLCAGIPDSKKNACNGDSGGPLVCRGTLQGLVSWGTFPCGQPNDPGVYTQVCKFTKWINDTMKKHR

HT-1080 = assay: cytotoxicity in HT1080 fibrosarcoma cells, cell-based, fluorescence readout (AID 620); type: functional; conditions: Homo sapiens
[18] = molecular target: Luciferin 4-monooxygenase (Photinus pyralis, UniProt P08659); assay: Counter Screen for Luciferase-based Assay Positives. [Related pubchem assays: 620, 618, 411 ]
Sequence of Luciferin 4-monooxygenase (P08659 whole entry): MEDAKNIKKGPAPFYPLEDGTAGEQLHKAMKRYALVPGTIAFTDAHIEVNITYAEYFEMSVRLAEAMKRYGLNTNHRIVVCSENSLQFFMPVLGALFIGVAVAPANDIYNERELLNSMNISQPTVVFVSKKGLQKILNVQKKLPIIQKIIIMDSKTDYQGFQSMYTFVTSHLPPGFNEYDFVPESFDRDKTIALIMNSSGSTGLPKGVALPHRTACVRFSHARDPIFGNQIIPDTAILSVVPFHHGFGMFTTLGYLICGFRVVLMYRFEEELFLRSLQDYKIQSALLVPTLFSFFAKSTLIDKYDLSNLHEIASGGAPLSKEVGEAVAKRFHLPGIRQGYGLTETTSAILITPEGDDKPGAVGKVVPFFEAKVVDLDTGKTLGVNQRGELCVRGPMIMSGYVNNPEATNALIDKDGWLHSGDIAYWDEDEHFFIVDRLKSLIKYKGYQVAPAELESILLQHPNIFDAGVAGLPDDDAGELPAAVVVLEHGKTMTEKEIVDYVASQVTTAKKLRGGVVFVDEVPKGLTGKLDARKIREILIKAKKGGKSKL

[19] = A2780 ovarian cancer cell cytotoxicity, dose response, cytotoxicity control, plate reader, dry powder samples (AID 743046); type: functional, cell-based
Paired box protein Pax-8 = Paired box protein Pax-8 (Homo sapiens, UniProt Q06710); assay: inhibitors of PAX8-driven TPO luciferase reporter, dose response, RMG-I cells, cherry-pick (AID 687027); type: functional, cell-based;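 note: luciferase reporter driven by Pax8 target thyroperoxidase promoter measured by SteadyGlo luminescence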
Sequence of Paired box protein Pax-8 (Q06710 whole entry): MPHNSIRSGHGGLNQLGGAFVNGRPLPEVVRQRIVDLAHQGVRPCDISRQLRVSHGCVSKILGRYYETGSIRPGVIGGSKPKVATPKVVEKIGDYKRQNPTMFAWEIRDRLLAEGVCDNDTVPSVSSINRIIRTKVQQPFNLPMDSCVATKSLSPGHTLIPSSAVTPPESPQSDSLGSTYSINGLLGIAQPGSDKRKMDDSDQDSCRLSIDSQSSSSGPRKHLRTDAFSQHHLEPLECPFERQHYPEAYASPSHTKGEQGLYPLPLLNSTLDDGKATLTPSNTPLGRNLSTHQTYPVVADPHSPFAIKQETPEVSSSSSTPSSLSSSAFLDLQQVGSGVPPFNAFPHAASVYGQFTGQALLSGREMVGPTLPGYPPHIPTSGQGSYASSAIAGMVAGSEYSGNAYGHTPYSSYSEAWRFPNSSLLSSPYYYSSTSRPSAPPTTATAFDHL

[20] = cytotoxicity in OVCAR8 ovarian cancer cells, dose response, PAX8 project, cell-based, plate reader, dry powder samples (AID 743197); type: functional; conditions: OVCAR-8
[21] = NIH:OVCAR-3 ovarian cancer cell cytotoxicity, dose response, PAX8 inhibitor project, plate reader, dry powder samples (AID 743044); type: functional, cell-based
HEK293 = assay: HEK293T cell cytotoxicity, dose response, cytotoxicity control, ATP luminescence, cherry-pick samples (AID 687005); type: functional, cell-based; conditions: Homo sapiens;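 note: cells exposed to compound for 48 hours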
[22] = HEK293 Cytotoxicity Assay Measured in Cell-Based System Using Plate Reader - 7071-01_Inhibitor_Dose_CherryPick_Activity_Set2.; type: functional
HeLa = assay: HeLa cell cytotoxicity, dose response, cytotoxicity control, ATP luminescence, cherry-pick samples (AID 687004); type: functional, cell-based; conditions: Homo sapiens
Vasopressin V1b receptor = Vasopressin V1b receptor (Homo sapiens, UniProt P47901); assay: Late-stage results from the probe development effort to identify antagonists of arginine vasopressin receptor 1a (AVPR1a): fluorescence-based cell-based dose response AVPR1b inhibition counterscreen assay.; type: functional
Sequence of Vasopressin V1b receptor (P47901 whole entry): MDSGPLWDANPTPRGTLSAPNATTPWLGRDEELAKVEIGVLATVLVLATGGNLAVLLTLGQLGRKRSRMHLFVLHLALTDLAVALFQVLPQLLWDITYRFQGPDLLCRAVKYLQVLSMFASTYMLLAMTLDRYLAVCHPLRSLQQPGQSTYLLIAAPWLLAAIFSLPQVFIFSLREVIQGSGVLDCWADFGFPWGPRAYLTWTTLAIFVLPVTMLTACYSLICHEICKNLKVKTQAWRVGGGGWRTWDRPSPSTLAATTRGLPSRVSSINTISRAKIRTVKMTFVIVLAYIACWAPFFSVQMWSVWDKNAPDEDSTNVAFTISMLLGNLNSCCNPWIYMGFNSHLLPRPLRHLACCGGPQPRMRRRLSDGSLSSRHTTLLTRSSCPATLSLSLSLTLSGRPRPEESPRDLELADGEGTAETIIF

[23] = Late-stage results from the probe development effort to identify antagonists of arginine vasopressin receptor 1a (AVPR1a): fluorescence-based cell-based dose response OXTR inhibition counterscreen assay.; type: functional
Vasopressin V2 receptor = Vasopressin V2 receptor (Homo sapiens, UniProt P30518); assay: Late-stage results from the probe development effort to identify antagonists of arginine vasopressin receptor 1a (AVPR1a): fluorescence-based cell-based dose response AVPR2 inhibition counterscreen assay.; type: functional
Sequence of Vasopressin V2 receptor (P30518 whole entry): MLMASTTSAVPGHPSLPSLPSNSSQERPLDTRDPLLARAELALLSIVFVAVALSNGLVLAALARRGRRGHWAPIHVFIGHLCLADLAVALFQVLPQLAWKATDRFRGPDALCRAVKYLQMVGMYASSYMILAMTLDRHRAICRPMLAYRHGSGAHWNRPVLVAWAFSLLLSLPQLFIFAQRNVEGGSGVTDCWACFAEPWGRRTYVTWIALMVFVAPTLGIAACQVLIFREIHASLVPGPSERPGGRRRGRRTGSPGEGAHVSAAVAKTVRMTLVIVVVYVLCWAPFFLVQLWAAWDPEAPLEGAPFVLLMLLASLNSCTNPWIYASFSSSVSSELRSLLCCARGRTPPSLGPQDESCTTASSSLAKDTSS

[24] = Late-stage results from the probe development effort to identify antagonists of arginine vasopressin receptor 1a (AVPR1a): fluorescence-based cell-based dose response AVPR1a inhibition assay.; type: functional
[25] = MITF: Counter assay: A375 proliferation Measured in Cell-Based System Using Plate Reader - 2084-03_Inhibitor_Dose_DryPowder_Activity_Set8.; type: functional; conditions: A-375
[26] = TRPM1 promoter luciferase reporter signal decrease, dose response, MITF inhibitor project, cell-based, SK-MEL-5, dry powder, set 8 (AID 624430); type: functional
[27] = MITF Orthogonal Assay: SK-MEL-5 CTG Assay Measured in Cell-Based System Using Plate Reader - 2084-02_Inhibitor_Dose_DryPowder_Activity_Set7.; type: functional
[28] = growth suppression of beta-catenin-knockout colon cells, dose response, cell-based, HCT116, human colon tumor (AID 1045); type: functional;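 note: HCT116 colon tumor cells with beta catenin knocked out; cells exposed to compound for 60 hours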
[29] = growth suppression of PTEN-null colon cells, dose response, cell-based, HCT116 PTEN knockout (AID 1047); type: functional;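 note: HCT116 colon tumor cells with PTEN knocked out; cells exposed to compound for 60 hours before readout; potency for loss of cell viability measured by luminescence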
[30] = P. falciparum Dd2 growth inhibitors, dose response, SYBR Green, dry powder samples, set 9 (AID 1159568); type: functional, cell-based

Nc1c2c(nc3sc4c(c13)CCCC4)-c1ccccc1CC2
EC50 (cells [1]): > 67.5 µM (inactive)
EC50 [2]: > 67.5 µM (inactive)
CC50 [3]: > 40 µM (active)

O=C(COc1ccccc1Cl)NC(=S)Nc1ccccc1N1CCCC1
EC50 [4]: 1.56 µM (active)

Clc1ccc2[nH]c3c(c2c1)CCc1c[nH]nc1-3
EC50 [5]: 15 µM (active)
IC50 [6]: 2.16 µM (active)
AC50 [7]: 0.129 µM (active)
AC50 [8]: 7.8 µM (active)
EC50 [9]: 18.1 µM (active)

CC(=O)Nc1cccc(-c2nc3ccccc3c(=O)o2)c1
IC50 [6]: 41.9 µM (not active)

O=C(NCCCn1ccnc1)c1cc(-c2ccccc2)on1
EC50 (cells [10]): > 350 µM (not active)
EC50 [11]: > 67.5 µM (inactive)
EC50 (cells [12]): 8.67 µM (active)

COc1ccc2ncc(OC(C)=O)cc2c1
IC50 (Prothrombin): 3.24 µM (active)
IC50 [13]: > 100 µM (active)

COC(=O)C1C(c2ccccc2)C(C(=O)OCc2ccco2)C1c1ccccc1 (stereo not given)
EC50 [14]: > 53 µM (inactive)
IC50 [15]: > 47.1 µM (inactive)
CC50 (Vero): 30.1 µM (active)

COc1ccc(Nc2nc(N)nc(CSC(=S)N3CCN(C)CC3)n2)cc1
EC50 [16]: > 67.6 µM (inactive)
IC50 [17]: > 67.6 µM (inactive)

Cc1cccc(C(=O)/N=c2/c(C#N)cc3c(=O)n4cccc(C)c4nc3n2Cc2ccco2)c1
EC50 (Kallikrein-7): 65.6 µM (inactive)

Cc1cc(O)ccc1Nc1cc(-c2cccc(N(C)C)c2)ncn1
EC50 [11]: > 67.5 µM (inactive)

Cc1ccc(-c2nc3cc(C)ccc3o2)cc1
EC50 (HT-1080): > 50 µM (not active)
EC50 (cells [1]): > 67.5 µM (inactive)
EC50 [18]: 1.59 µM (active)
EC50 [2]: > 67.5 µM (inactive)

Cc1noc(C)c1S(=O)(=O)N(C)C[C@H]1OCCCC[C@@H](C)Oc2ccc(NS(=O)(=O)c3ccc(Cl)cc3)cc2C(=O)N([C@@H](C)CO)C[C@H]1C
AC50 [19]: < 0.26 µM (active)
AC50 (Paired box protein Pax-8): 10.9 µM (active)

C[C@@H]1CCCCO[C@@H](CN(C)Cc2ccc(C(F)(F)F)cc2)[C@H](C)CN([C@H](C)CO)C(=O)c2cc(NC(=O)Nc3ccccc3)ccc2O1
AC50 [19]: 57 µM (active)
AC50 [20]: 36 µM (active)
AC50 [21]: 28.1 µM (active)
AC50 (Paired box protein Pax-8): 4.86 µM (active)

C[C@@H]1CN([C@@H](C)CO)C(=O)c2cc(NS(=O)(=O)c3ccc(F)cc3)ccc2O[C@@H](C)CCCCO[C@H]1CN(C)S(=O)(=O)c1ccc(F)cc1
AC50 (HEK293): 22.5 µM (active)
AC50 [22]: 22.5 µM (active)
AC50 (HeLa): > 52 µM (inactive)

C[C@@H]1CN([C@H](C)CO)C(=O)c2cc(NC(=O)Cc3ccccc3)ccc2O[C@@H](C)CCCCO[C@@H]1CN(C)Cc1ccc(C(F)(F)F)cc1
AC50 [20]: 43.2 µM (active)
AC50 [21]: 17.5 µM (active)
AC50 (Paired box protein Pax-8): 7.22 µM (active)

N#Cc1cccnc1N1CCN(C(=O)N(CC2CC2)c2ccc(Cl)cc2)CC1
IC50 (Vasopressin V1b receptor): > 50 µM (inactive)
IC50 [23]: > 50 µM (inactive)
IC50 (Vasopressin V2 receptor): > 50 µM (inactive)
IC50 [24]: 0.0806 µM (active)

O=C1C=C(Nc2cc(Cl)cc(Cl)c2)C(=O)c2ccccc21
AC50 [25]: 24 µM (active)
AC50 [26]: 23.9 µM (active)
AC50 [27]: 1.12 µM (active)

Cc1cccnc1N1CCC(C(=O)N(CC2CC2)c2ccc(Cl)cc2)CC1
IC50 (Vasopressin V1b receptor): 12.6 µM (inactive)
IC50 [23]: 2.6 µM (active)
IC50 (Vasopressin V2 receptor): 15.7 µM (inactive)
IC50 [24]: 0.0075 µM (active)

C=CCn1/c(=N/C(=O)c2ccc(S(=O)(=O)N3CCc4ccccc4C3)cc2)sc2cc(S(N)(=O)=O)ccc21
EC50 [28]: 4.56 µM (active)
EC50 (Kallikrein-7): > 69.5 µM (inactive)
EC50 [29]: 5.77 µM (active)

COc1ccc(/N=C2/C(=O)N3CCCc4cccc2c43)cc1
EC50 (cells [10]): > 350 µM (not active)
IC50 [13]: > 100 µM (active)
EC50 (cells [12]): > 350 µM (not active)

COc1ccccc1-c1ccc2c(c1)[C@@H]1[C@@H](CCN1C(=O)C1CCC1)[C@H](CO)N2
AC50 [30]: 2.92 µM (active)

CCCNC(=O)N1[C@H](C#N)[C@H](c2ccccc2C2=CCCCC2)[C@@H]1CO
AC50 [30]: 7.06 µM (active)

O=C1C(Nc2ccc(I)cc2)=C(N2CCCCC2)C(=O)c2ccccc21
AC50 [25]: > 70 µM (inactive)
AC50 [26]: 9.62 µM (active)
AC50 [27]: 15.9 µM (active)
